Data on 15 compounds can be found in patent publication US20230277553A1, “THERAPEUTIC COMPOSITION OF CURE-PRO COMPOUNDS FOR TARGETED DEGRADATION OF BET DOMAIN PROTEINS, AND METHODS OF MAKING AND USAGE” (CORNELL UNIVERSITY, priority 2020, published 2023).

For assay [1], the target named is T1, BRD4 (Homo sapiens, UniProt O60885). The assay is described as follows: Summary of BRD4 degradation by CURE-PRO pairs, estimated from Western Blot or WES (Proteinsimple). The class given is cell-based. The note with it: for Degradation of BRD4 in combination with CRBN ligand [drawing 371] / Degradation of BRD4 in combination with CRBN ligand [drawing 372] / Degradation of BRD4 in combination with CRBN ligand [drawing 370]: Table 1; for Degradation of BRD4 in combination with CRBN ligand [drawing 371]: second drawing (8047); for Degradation of BRD4 in combination with CRBN ligand [drawing 372]: third drawing (8066); for Degradation of BRD4 in combination with CRBN ligand [drawing 407]: Table 4, aryl-boronic acid-containing CRBN ligand, first drawing (by text: 8048); for Degradation of BRD4 in combination with VHL ligand [drawing 397]: Table 3, aromatic 1,2-diol-containing VHL ligand, second drawing (8305); for Degradation of BRD4 in combination with CRBN ligand [drawing 370]: aromatic 1,2-diol- or hindered cis-1,2-diol-containing CRBN ligand, first drawing (8046). On the set-up: endogenous in cells. From the text:
A black check mark indicates efficacy of 30% to 70% or higher protein degradation.

The target in assay [2] is T1, BRD4. In words: CURE-PRO-mediated BRD4 degradation, Western blot, HeLa cells. Conditions: 24 h, Western blot; for BRD4 degradation, BRD ligand alone: BRD monomer alone; for BRD4 degradation, co-treatment with CRBN ligand 8048: 1:1 with 8048, 1-10 μM each; for BRD4 degradation, co-treatment with CRBN ligand 8049: 1:1 with 8049, 1-10 μM each; for BRD4 degradation, co-treatment with CRBN ligand 8047: 1:1 with 8047, 10 μM each. Also noted: endogenous in cells; host or cells: HeLa. In kind it is cell-based. The procedure: All cell lines were purchased from ATCC or DSMZ and grown at 37° C. with 5% CO2. Human HeLa cells were cultured in complete growth medium (Dulbecco's modified Eagle's medium (DMEM) supplemented with 10% FBS); MCF7 cells were cultured in complete growth medium (Dulbecco's modified Eagle's medium (DMEM) supplemented with 10% FBS and 0.01 mg/ml human recombinant insulin (Sigma Aldrich); Namalwa and MOLM-13 cells were cultured in complete growth medium (RPMI 1640 medium supplemented with 10% FBS); MV-4-11 were cultured in complete growth medium (Iscove's Modified Dulbecco's medium, supplemented with 10% FBS); HCT116 cells were cultured in complete growth medium (McCoy's 5a Medium supplemented with 10% FBS). For cellular degradation of BRD4 studies, cells were seeded in a 12-well plate at 70-80% confluency, allowed to attach overnight, and incubated with the indicated compounds for the indicated time. When indicated, a 15-minute pretreatment with 10 μM pomalidomide, 10 μM VHL298, 10 μM Nutlin3a, 1 μM MG-132 or 1 μM Carfilzomib was performed before the addition of CURE-PROs. For washout studies, after CURE-PRO treatment, media was aspirated and incubated with complete medium for the indicated time before lysis.
Anti-BRD4 (13440, 1:1,000 dilution for Western Blot and 1:25 dilution for ProteinSimple); Anti-BRD2 (5848 1:1,000 dilution for Western Blot and 1:25 dilution for ProteinSimple); β-Actin (3700, 1:2,000 dilution for Western Blot), β-Actin (4970, 1:50 dilution for ProteinSimple) anti-mouse IgG-HRP, and anti-rabbit IgG-HRP antibodies were purchased Cell Signaling Technology. Anti-GAPDH (600-401-A33, 1:100 dilution for ProteinSimple) was purchased from Rockland Immunochemicals, Inc. Anti-BRD3 (sc-81202, 1:200 dilution for Western Blot) was purchased from Santa Cruz Biotechnology.
HeLa, MCF7, or HCT116 cells (2.5-3×10^6) were treated for 24 hours with the indicated compounds solubilized in DMSO. The cells were washed in ice-cold PBS and were then lysed in RIPA lysis buffer (150 mM NaCl, 5 mM EDTA, 1% NP-40, 0.5% sodium deoxycholate, 0.1% SDS, 50 mM Tris, pH 8.0.) with Roche protease inhibitor complete cocktail and phosphatase inhibitors (10 mM sodium fluoride, 10 mM sodium pyrophosphate, 1 mM sodium orthovanadate and 20 mM β-glycerophosphate). The total protein concentrations were determined by Bradford Protein Assay and 10-20 μg of protein was loaded onto 4-15% Tris-Glycine gradient gels (Biorad). After standard gel electrophoresis, the separated proteins were transferred to PVDF membrane by wet transfer. The immunoblots were then blocked for 1 hour in 5% skim milk in TBST or 5% BSA in TBST, according to manufacturer's instructions, before an overnight incubation at 4° C. with indicated antibodies and membranes. Membranes were then incubated with the appropriate horseradish peroxidase-conjugated secondary antibodies (1:5,000 dilution) for 1 h at room temperature and the bands were visualized using the Clarity Max Western ECL Substrate (Biorad) and the ChemiDoc Imaging System (Biorad). Signal was detected with ECL Western Blotting Substrate (Pierce) and X-ray film processed with a Konica SRX-101 X-ray film processor or captured by Bio-Rad's Chemidoc Imaging system.
HeLa cells (2.5×106) were treated for 24 hours with the sample compounds solubilized in DMSO. Compounds were added at 1-10 μM each. Standardized protein samples were electrophoresed and imaged as described in the immunoblotting description above. FIGS. 6-18 depicts the CURE-PRO-mediated BRD4 degradation for BRD monomers (JQ1 derivatives comprising of catechol linkers), and CRBN ligands, 8048 and 8049 (pomalidomide derivatives comprising boronic acid linkers) combined in a 1:1 ratio.
HeLa cells (2.5×106) were treated for 24 hours with the compounds solubilized in DMSO. The compounds were added at 10 μM each. Standardized protein samples were electrophoresed and imaged as described in the immunoblotting section above. […]

Entries after “also recorded” stand apart in the source; their conditions may differ.

Take `COc1ccc2c(c1)C(c1ccc(Cl)cc1)=N[C@@H](CC(=O)NCCNC(=O)/C=C/c1cccc(B(O)O)c1)c1nnc(C)n1-2` [BRD-E30, (3-((E)-3-((2-(2-((4S)-6-(4-chlorophenyl)-8-methoxy-1-methyl-4H-benzo[f][1,2,4]triazolo[4,3-a][1,4]diazepin-4-yl)acetamido)ethyl)amino)-3-oxoprop-1-en-1-yl)phenyl)boronic acid]: at BRD4 [1], the “Degradation of BRD4 in combination with CRBN ligand [drawing 371]” value (“Degradation of BRD4 … [drawing 371]” below) is listed as “✓ (A black check mark indicates efficacy of 30% to 70% or higher protein degradation)” and the “Degradation of BRD4 in combination with CRBN ligand [drawing 372]” value is listed as “✓ (A black check mark indicates efficacy of 30% to 70% or higher protein degradation)”. The “BRD4 degradation, BRD ligand alone” value at BRD4 [2] is on record as “no change in expression”.

With `CCNC(=O)C[C@@H]1N=C(c2ccc(Cl)cc2)c2cc(OCCCCC(=O)Nc3ccc(O)c(O)c3)ccc2-n2c(C)nnc21` [BRD-N22, 5-(((4S)-6-(4-chlorophenyl)-4-(2-(ethylamino)-2-oxoethyl)-1-methyl-4H-benzo[f][1,2,4]triazolo[4,3-a][1,4]diazepin-8-yl)oxy)-N-(3,4-dihydroxyphenyl)pentanamide], at BRD4 [1], the “Degradation of BRD4 in combination with CRBN ligand [drawing 407]” value (“Degradation of BRD4 … [drawing 407]” below) was “✓ (A black check mark indicates efficacy of 30% to 70% or higher protein degradation)”. Moreover, on BRD4 [2], the “BRD4 degradation, co-treatment with CRBN ligand 8048” value is on record as “causes degradation of BRD4; also recorded: Degradation is noted”; the “BRD4 degradation, co-treatment with CRBN ligand 8049” value is “no evidence of BRD4 degradation”; the “BRD4 degradation, BRD ligand alone” value is “no degradation of BRD4”.

In the case of `CCNC(=O)C[C@@H]1N=C(c2ccc(SCc3ccc(B(O)O)cc3)cc2)c2cc(OC)ccc2-n2c(C)nnc21` [BRD-E54], the “Degradation of BRD4 in combination with VHL ligand [drawing 397]” value (“Degradation of BRD4 … [drawing 397]” below) on BRD4 [1] is recorded as “✓ (A black check mark indicates efficacy of 30% to 70% or higher protein degradation)”.

As to `COc1ccc2c(c1)C(c1ccc(Cl)cc1)=N[C@@H](CC(=O)NCCOCCOCCOCCNC(=O)c1ccc(O)c(O)c1)c1nnc(C)n1-2` [BRD-N44], the “Degradation of BRD4 … [drawing 407]” value on BRD4 [1] is recorded as “✓ (A black check mark indicates efficacy of 30% to 70% or higher protein degradation)”. Moreover, at BRD4 [2], the “BRD4 degradation, co-treatment with CRBN ligand 8048” value is “causes degradation of BRD4” and the “BRD4 degradation, BRD ligand alone” value is recorded as “no degradation of BRD4”.

Turning to `COc1ccc2c(c1)C(c1ccc(Cl)cc1)=N[C@@H](CC(=O)NCCCCNC(=O)c1cccc(O)c1O)c1nnc(C)n1-2` [BRD-N6], on BRD4 [1], the “Degradation of BRD4 … [drawing 407]” value is on record as “✓ (A black check mark indicates efficacy of 30% to 70% or higher protein degradation)”. At BRD4 [2], the “BRD4 degradation, co-treatment with CRBN ligand 8048” value was “causes degradation of BRD4; also recorded: Degradation is noted”; the “BRD4 degradation, co-treatment with CRBN ligand 8049” value is given as “no evidence of BRD4 degradation”; the “BRD4 degradation, BRD ligand alone” value is given as “no degradation of BRD4”.

Take `COc1ccc2c(c1)C(c1ccc(Cl)cc1)=N[C@@H](CC(=O)Nc1ccc(B(O)O)cc1)c1nnc(C)n1-2` [BRD-E74, (4-(2-((4S)-6-(4-chlorophenyl)-8-methoxy-1-methyl-4H-benzo[f][1,2,4]triazolo[4,3-a][1,4]diazepin-4-yl)acetamido)phenyl)boronic acid]: the “Degradation of BRD4 in combination with CRBN ligand [drawing 370]” value on BRD4 [1] is recorded as “✓ (A black check mark indicates efficacy of 30% to 70% or higher protein degradation)”. Further, the “BRD4 degradation, co-treatment with CRBN ligand 8046” value at BRD4 [2] (1:1 with 8046, 10 μM each) is recorded as “causes degradation of BRD4”. In addition, at BRD4 [2], the “BRD4 degradation, co-treatment with CRBN ligand 8047” value was “causes degradation of BRD4”.

Regarding `CCNC(=O)C[C@@H]1N=C(c2ccc(Cl)cc2)c2cc(OCCOCCOCCNC(=O)c3ccc(O)c(O)c3)ccc2-n2c(C)nnc21` [BRD- N40], the “Degradation of BRD4 in combination with aryl-boronic acid-containing VHL ligand” value at BRD4 [1] (Table 6, head shows drawings [drawing 429] and [drawing 430]) is reported as “✓ (A black check mark indicates efficacy of 30% to 70% or higher protein degradation)”.

Consider `COc1ccc2c(c1)C(c1ccc(Cl)cc1)=N[C@@H](CC(=O)NCCNC(=O)Cc1cccc(B(O)O)c1)c1nnc(C)n1-2` [BRD- E38], for which the “Degradation of BRD4 … [drawing 371]” value on BRD4 [1] is recorded as “✓ (A black check mark indicates efficacy of 30% to 70% or higher protein degradation)”.

Regarding `COc1ccc2c(c1)C(c1ccc(Cl)cc1)=N[C@@H](CC(=O)Nc1ccc(O)c(O)c1)c1nnc(C)n1-2` [BRD-N68], the “Degradation of BRD4 … [drawing 407]” value at BRD4 [1] was “✓ (A black check mark indicates efficacy of 30% to 70% or higher protein degradation)”.

Take `CCNC(=O)C[C@@H]1N=C(c2ccc(Cl)cc2)c2cc(OCCOCCNC(=O)c3ccc(B(O)O)cc3)ccc2-n2c(C)nnc21` [BRD- E39]: the “Degradation of BRD4 in combination with CRBN ligand [drawing 370]” value on BRD4 [1] is reported as “✓ (A black check mark indicates efficacy of 30% to 70% or higher protein degradation)”.

`COc1ccc2c(c1)C(c1ccc(Cl)cc1)=N[C@@H](CC(=O)NCCNC(=O)Cc1ccc(B(O)O)cc1)c1nnc(C)n1-2` [BRD-E27, (4-(2-((2-(2-((4S)-6-(4-chlorophenyl)-8-methoxy-1-methyl-4H-benzo[f][1,2,4]triazolo[4,3-a][1,4]diazepin-4-yl)acetamido)ethyl)amino)-2-oxoethyl)phenyl)boronic acid]: at BRD4 [1], the “Degradation of BRD4 … [drawing 371]” value is reported as “✓ (A black check mark indicates efficacy of 30% to 70% or higher protein degradation)”. Further, on BRD4 [2], the “BRD4 degradation, co-treatment with CRBN ligand 8047” value was “causes degradation of BRD4”.

On to `CCNC(=O)C[C@@H]1N=C(c2ccc(Cl)cc2)c2cc(OCCOCCOCCNC(=O)c3cccc(B(O)O)c3)ccc2-n2c(C)nnc21` [BRD-E42], for which the “Degradation of BRD4 … [drawing 371]” value on BRD4 [1] is reported as “✓ (A black check mark indicates efficacy of 30% to 70% or higher protein degradation)”. The “BRD4 degradation, co-treatment with CRBN ligand 8047” value on BRD4 [2] is on record as “causes degradation of BRD4”.

Regarding `COc1ccc2c(c1)C(c1ccc(Cl)cc1)=N[C@@H](CC(=O)NCCNC(=O)c1cccc(B(O)O)c1)c1nnc(C)n1-2` [BRD-E2], the “Degradation of BRD4 … [drawing 397]” value on BRD4 [1] is on record as “✓ (A black check mark indicates efficacy of 30% to 70% or higher protein degradation)”.

Regarding `COc1ccc2c(c1)C(c1ccc(Cl)cc1)=N[C@@H](CC(=O)NCCCCCNC(=O)c1ccc(B(O)O)cc1)c1nnc(C)n1-2` [BRD- E07], the “Degradation of BRD4 in combination with CRBN ligand [drawing 372]” value on BRD4 [1] was “✓ (A black check mark indicates efficacy of 30% to 70% or higher protein degradation)”.

On to `COc1ccc2c(c1)C(c1ccc(Cl)cc1)=N[C@@H](CC(=O)NCc1ccc(B(O)O)cc1)c1nnc(C)n1-2` [BRD-E09, (4-((2-((4S)-6-(4-chlorophenyl)-8-methoxy-1-methyl-4H-benzo[f][1,2,4]triazolo[4,3-a][1,4]diazepin-4-yl)acetamido)methyl)phenyl)boronic acid], for which, at BRD4 [1], the “Degradation of BRD4 … [drawing 397]” value is “✓ (A black check mark indicates efficacy of 30% to 70% or higher protein degradation)”.
